Laboratory results taken from patent US20250215039A1, “NUCLEOSIDES FOR TREATING CANCER” (PRIMEFOUR THERAPEUTICS, INC., priority 2022, published 2025).
Like-named read-outs stand apart in the source and are kept apart here.

Test system: cancer cell lines
Test: Cancer cell proliferation activity (CellTiterGlo, 72 h)
Assay type: cell-based
Conditions: 72 h, 72 h, read-out: IC50
Method: Dose response relationships on cell proliferation was assessed for representative Compounds of the Disclosure on cancer cell lines. Briefly, compound treatment of cells started one day after seeding with a final DMSO concentration of 0.1%, and was performed by nanodrop-dispensing using a Tecan Dispenser. 0.1% DMSO (solvent) and Staurosporine (10 μM) served as high control (100% viability) and low control (0% viability), respectively.
Cells were cultured in the appropriate media. For the assays, cells were seeded in white cell culture-treated flat and clear bottom multiwell plates and incubated at 37° C. overnight before compound was added. After incubation for 72 h at 37° C. at 5% or 10% CO2 dependent on the medium, cell plates were equilibrated to room temperature for one hour, CellTiterGlo reagent (Promega) was added and luminescence was measured approximately an hour later using a luminometer.
Raw data were converted into percent cell viability relative to the high and low control, which were set to 100% and 0%, respectively.
The IC50 values are summarized in Tables 9A-1, Table 10A, and Table 10B.

## C=C[C@]1(CO)O[C@@H](Nc2[nH]c(=O)ncc2Br)C[C@@H]1O [Cpd. No. 3, 5-bromo-6-(((2R,4S,5R)-4-hydroxy-5-(hydroxymethyl)-5-vinyltetrahydrofuran-2-yl)amino)pyrimidin-2(1H)-one]
5637 cell line (bladder)
  IC50: 5.02 µM
CLS439 cell line (bladder)
  IC50: > 50 µM
HS729 cell line (muscle)
  IC50: 4.91 µM
JAR cell line (placenta)
  IC50: > 50 µM
U20S cell line, bone
  IC50: > 50 µM
Homo sapiens, 22Rv1, 72 h, 22RV1 cell line (prostate)
  IC50: > 50 µM
Homo sapiens, 786-0, 72 h, 786O cell line (kidney)
  IC50: > 50 µM
Homo sapiens, A204, 72 h, A204 cell line (muscle)
  IC50: 1.1 µM
Homo sapiens, A549, 72 h, A549 cell line, lung
  IC50: 3.33 µM
Homo sapiens, A673, 72 h, A673 cell line (bone)
  IC50: > 50 µM
Homo sapiens, A2780, 72 h, A2780 cell line (ovary)
  IC50: > 50 µM
Homo sapiens, A-375, 72 h, A375 cell line (skin)
  IC50: 4.58 µM
Homo sapiens, A-431, 72 h, A431 cell line (skin)
  IC50: > 50 µM
Homo sapiens, ACHN, ACHN cell line (kidney)
  IC50: > 50 µM
Homo sapiens, ASPC1, 72 h, ASPC1 cell line (pancreas)
  IC50: > 50 µM
Homo sapiens, BT-20, 72 h, BT20 cell line (breast)
  IC50: > 50 µM
Homo sapiens, BXPC-3, 72 h, BXPC3 cell line (pancreas)
  IC50: > 50 µM
Homo sapiens, C-33-A, C33A cell line, endometrial
  IC50: 2.67 µM
Homo sapiens, CAKI-1, 72 h, CAKI1 cell line (kidney)
  IC50: 3.25 µM
Homo sapiens, COLO 205, 72 h, COLO205 cell line (colon)
  IC50: 2.31 µM
Homo sapiens, COLO-678, 72 h, COLO678 cell line (colon)
  IC50: > 50 µM
Homo sapiens, Ca-Ski, CASKI cell line, endometrial
  IC50: > 50 µM
Homo sapiens, Caco-2, 72 h, CACO2 cell line (colon)
  IC50: > 50 µM
Homo sapiens, Calu-6, 72 h, CALU6 cell line (lung)
  IC50: 6.06 µM
Homo sapiens, DLD-1, 72 h, DLD1 cell line (colon)
  IC50: > 50 µM
Homo sapiens, DU-145, 72 h, DU145 cell line (prostate)
  IC50: > 50 µM
Homo sapiens, EFO-21, 72 h, EFO21 cell line (ovary)
  IC50: > 50 µM
Homo sapiens, EJ-28, 72 h, EJ28 cell line (bladder)
  IC50: > 50 µM
Homo sapiens, Granta-519, 72 h, GRANTA-519 cell line (hematological)
  IC50: 1.06 µM
Homo sapiens, HCT-15, 72 h, HCT15 cell line (colon)
  IC50: > 50 µM
Homo sapiens, HCT-116, 72 h, HCT116 cell line (colon)
  IC50: 3.65 µM
Homo sapiens, HEK293, 72 h, HEK293 cell line (kidney)
  IC50: 3.46 µM
Homo sapiens, HL-60, 72 h, HL-60 cell line (hematological)
  IC50: 3.42 µM
Homo sapiens, HT-29, 72 h, HT29 cell line (colon)
  IC50: > 50 µM
Homo sapiens, HT-1080, 72 h, HT1080 cell line (connective tissue)
  IC50: 3.43 µM
Homo sapiens, HeLa, HELA cell line, endometrial
  IC50: 5.34 µM
Homo sapiens, HepG2, 72 h, HEPG2 cell line (liver)
  IC50: > 50 µM
Homo sapiens, Hs-578T, HS578T cell line, breast
  IC50: > 50 µM
Homo sapiens, IGROV-1, 72 h, IGROV1 cell line (ovary)
  IC50: > 50 µM
Homo sapiens, IMR-90, 72 h, IMR90 cell line, lung
  IC50: 5.39 µM
Homo sapiens, J82, 72 h, J82 cell line (bladder)
  IC50: > 50 µM
Homo sapiens, JEG-3, 72 h, JEG3 cell line (placenta)
  IC50: > 50 µM
Homo sapiens, JIMT-1, 72 h, JIMT1 cell line (breast)
  IC50: 11.8 µM
Homo sapiens, K562, 72 h, K-562 cell line (hematological)
  IC50: 5.04 µM
Homo sapiens, Kasumi 1, 72 h, KASUMI-1 cell line (hematological)
  IC50: 0.5 µM
Homo sapiens, L-363, 72 h, L-363 cell line (hematological)
  IC50: > 50 µM
Homo sapiens, LoVo, LOVO cell line (colon)
  IC50: > 50 µM
Homo sapiens, MCF7, 72 h, MCF7 cell line (breast)
  IC50: 2.6 µM
Homo sapiens, MDA-MB-231, 72 h, MDAMB231 cell line (breast)
  IC50: 2.96 µM
Homo sapiens, MDA-MB-435, 72 h, MDAMB435 cell line (skin)
  IC50: > 50 µM
Homo sapiens, MDA-MB-436, 72 h, MDAMB436 cell line (breast)
  IC50: 3.65 µM
Homo sapiens, MDA-MB-468, 72 h, MDAMB468 cell line (breast)
  IC50: > 50 µM
Homo sapiens, MG-63, 72 h, MG63 cell line (bone)
  IC50: 3.93 µM
Homo sapiens, MHH-ES-1, 72 h, MHHES1 cell line (bone)
  IC50: 4.87 µM
Homo sapiens, MIA PaCa-2, 72 h, MIAPACA2 cell line (pancreas)
  IC50: > 50 µM
Homo sapiens, MINO, MINO cell line (hematological)
  IC50: 1.51 µM
Homo sapiens, MV4-11, 72 h, MV4-11 cell line (hematological)
  IC50: 2.14 µM
Homo sapiens, NCI-H23, 72 h, NCI-H23 cell line (lung)
  IC50: 1.81 µM
Homo sapiens, NCI-H82, 72 h, NCIH82 cell line (lung)
  IC50: > 50 µM
Homo sapiens, NCI-H292, 72 h, NCIH292 cell line (lung)
  IC50: 5.41 µM
Homo sapiens, NCI-H460, 72 h, NCIH460 cell line (lung)
  IC50: > 50 µM
Homo sapiens, OVCAR-3, 72 h, OVCAR3 cell line (ovary)
  IC50: 3.08 µM
Homo sapiens, OVCAR-4, 72 h, OVCAR4 cell line (ovary)
  IC50: 3.18 µM
Homo sapiens, PANC-1, 72 h, PANC1 cell line (pancreas)
  IC50: > 50 µM
Homo sapiens, PC-3, 72 h, PC3 cell line (prostate)
  IC50: 4.81 µM
Homo sapiens, PLC-PRF-5, 72 h, PLCPRF5 cell line (liver)
  IC50: > 50 µM
Homo sapiens, Panc1005, 72 h, PANC1005 cell line (pancreas)
  IC50: > 50 µM
Homo sapiens, RD, RD cell line (muscle)
  IC50: 2.67 µM
Homo sapiens, Ramos, RAMOS cell line (hematological)
  IC50: 1.41 µM
Homo sapiens, SAOS-2, 72 h, SAOS2 cell line (bone)
  IC50: 1.7 µM
Homo sapiens, SF-268, 72 h, SF268 cell line (brain)
  IC50: > 50 µM
Homo sapiens, SF-295, 72 h, SF295 cell line (brain)
  IC50: > 50 µM
Homo sapiens, SK-BR-3, 72 h, SKBR3 cell line (breast)
  IC50: 3.45 µM
Homo sapiens, SK-HEP1, 72 h, SKHEP1 cell line (liver)
  IC50: 3.02 µM
Homo sapiens, SK-LMS-1, 72 h, SKLMS1 cell line (uterus)
  IC50: > 50 µM
Homo sapiens, SK-MEL-5, 72 h, SKMEL5 cell line, skin
  IC50: > 50 µM
Homo sapiens, SK-MEL-28, 72 h, SKMEL28 cell line (skin)
  IC50: 4.19 µM
Homo sapiens, SK-N-AS, SKNAS cell line (brain)
  IC50: 0.96 µM
Homo sapiens, SK-N-SH, SKNSH cell line (brain)
  IC50: 0.91 µM
Homo sapiens, SK-OV-3, 72 h, SKOV3 cell line (ovary)
  IC50: 2.45 µM
Homo sapiens, SNB-75, 72 h, SNB75 cell line (brain)
  IC50: > 50 µM
Homo sapiens, SU-DHL10, 72 h, SU-DHL-10 cell line (hematological)
  IC50: 5.56 µM
Homo sapiens, SU-DHL-6, 72 h, SU-DHL-6 cell line (hematological)
  IC50: > 50 µM
Homo sapiens, SW-620, 72 h, SW620 cell line (colon)
  IC50: > 50 µM
Homo sapiens, T-24, 72 h, T24 cell line (bladder)
  IC50: > 50 µM
Homo sapiens, TE-671, 72 h, TE671 cell line (muscle)
  IC50: 3.08 µM
Homo sapiens, THP-1, 72 h, THP-1 cell line (hematological)
  IC50: 3.01 µM
Homo sapiens, U-87 MG, U87MG cell line (brain)
  IC50: > 50 µM
Homo sapiens, UMUC3, 72 h, UMUC3 cell line (bladder)
  IC50: > 50 µM
Homo sapiens, UO-31, 72 h, UO31 cell line (kidney)
  IC50: > 50 µM
Homo sapiens, WSU-NHL, WSU-NHL cell line (hematological)
  IC50: 2.34 µM
MT-3, 72 h, MT3 cell line (breast)
  IC50: 3.68 µM
NCI-H358M, NCIH358M cell line (lung)
  IC50: 2.69 µM
PBMC, PBMC (hematological)
  IC50: > 50 µM
RD-ES, RDES cell line (bone)
  IC50: > 50 µM
